Reference: patent US20250206773A1, “FORMS AND COMPOSITIONS OF SODIUM CHENODEOXYCHOLATE” (Syntis Bio, Inc., priority 2022, published 2025)
Read-outs that look alike come from different tables or passages of the source.

What was measured:
[1] = format: physicochemical
Method: In-process stability of NaCDC Form B was evaluated under two conditions at reflux, as described in Table 1 below.

[2] = format: physicochemical; remark: listed apart in the source
Method: HPLC analysis was carried out on an Agilent 1260 Infinity chromatograph, using a Hichrom C18 column 100×4.6 mm, 3.5 m, at 40° C. Method details were as follows: [table] Around 10 mg of NaCDC Form B was weighed into 1.6 mL HPLC vials. 3-5 mm PTFE-covered cylindrical magnetic stirring bars were added to the vials. […] The vials were visually inspected before each addition to check for the dissolution of the starting material, and the solvent addition was stopped when a complete dissolution was observed. The clear solutions were left to rest at RT. […] The experiments were held at each temperature for 1 h, and then they were visually inspected to see if dissolution occurred. At the end of the experimental time, the magnetic stirring bars were removed, and all slurries or solutions were dried at different temperatures depending on the boiling points of each solvent used (i.e., at 30° C., 20-21 mbar or 50° C., 21 mbar, for 21 hours; with the exception of experiments SASO7, SAS33, SAS34, SAS35, SAS36 and SAS45 which were dried at 50° C. for 43 hours). All the resulting solids were analyzed by XRPD. For several selected experiments, HPLC analysis was performed. The solids that gave new XRPD patterns were investigated by TGA/DSC. [table]

[3] = n-BuOH/water (6/1), azeotropic reflux for 24 h
[4] = n-BuOH/water (6/1), azeotropic reflux

For C[C@H](CCC(=O)[O-])[C@H]1CC[C@H]2[C@@H]3[C@H](O)C[C@@H]4C[C@H](O)CC[C@]4(C)[C@H]3CC[C@]12C.[Na+] [Form B, sodium chenodeoxycholate], the “HPLC Purity % CDC (t24)” value ([1]; n-BuOH, reflux for 24 h) was 99.9%, the “HPLC Purity % Cholic acid (t24)” value ([1]; n-BuOH, reflux for 24 h) was 0.05% and the “HPLC Purity % CDC (t0)” value ([1]; n-BuOH, reflux) was 99.9%. For the same molecule, the “HPLC Purity % Cholic acid (t0)” value ([1]; n-BuOH, reflux) was 0.05%, the “HPLC Purity % CDC (t24)” value [1, 3] was 99.92% and the “HPLC Purity % Cholic acid (t24)” value [1, 3] was 0.05%. For the same molecule, the “HPLC Purity % CDC (t0)” value [1, 4] was 99.92%, the “HPLC Purity % Cholic acid (t0)” value [1, 4] was 0.05% and the “HPLC (%) 212 nm” value ([2]; SAS01, Water (H2O), solid after evaporation A (30° C., 20-21 mbar, 21 hours)) was 84.9%. The “HPLC (%) 212 nm” value ([2]; SAS03, Ethanol (EtOH), solid after evaporation A (30° C., 21 hours)) was 71.5%, the “HPLC (%) 212 nm” value ([2]; SAS04, 2-Propanol (2-PrOH), solid after evaporation A (30° C., 21 hours)) was 96.6% and the “HPLC (%) 212 nm” value ([2]; SAS05, 2-Methyl-1-propanol (Isobutanol), solid after evaporation A (30° C., 21 hours)) was 96.5%. For the same molecule, the “HPLC (%) 212 nm” value ([2]; SAS06, 2-Butanol, solid after evaporation A (30° C., 21 hours)) was 97.5%, the “HPLC (%) 212 nm” value ([2]; SAS07, 2-Ethoxyethanol, solid after evaporation C (50° C., 43 hours)) was 38.0% and the “HPLC (%) 212 nm” value ([2]; SAS08, 2,2,2-Trifluoroethanol (TFE), solid after evaporation A (30° C., 21 hours)) was 91.3%. For the same molecule, the “HPLC (%) 212 nm” value ([2]; SAS09, 3-Methyl-1-butanol (Isoamyl alcohol), solid after evaporation B (50° C., 21 hours)) was 48.1%, the “HPLC (%) 212 nm” value ([2]; SAS20, n-Butyl acetate, solid after evaporation B (50° C., 21 hours)) was 96.3% and the “HPLC (%) 212 nm” value ([2]; SAS24, Diisopropyl ether, solid after evaporation A (30° C., 21 hours)) was 94.4%. For the same molecule, the “HPLC (%) 212 nm” value ([2]; SAS33, Benzonitrile, solid after evaporation C (50° C., 43 hours)) was 68.0%, the “HPLC (%) 212 nm” value ([2]; SAS34, N,N-Dimethyl-acetamide, solid after evaporation C (50° C., 43 hours)) was 1.2% and the “HPLC (%) 212 nm” value ([2]; SAS35, N-Methyl-pyrrolidone, gel after evaporation C (50° C., 43 hours)) was 1.5%. For the same molecule, the “HPLC (%) 212 nm” value ([2]; SAS36, Dimethyl sulfoxide (DMSO), solid after evaporation C (50° C., 43 hours)) was 32.4%, the “HPLC (%) 212 nm” value ([2]; SAS39, EtOH:MeCN (1:1 v/v), solid after evaporation A (30° C., 21 hours)) was 80.1% and the “HPLC (%) 212 nm” value ([2]; SAS40, H2O:THF (1:1 v/v), solid after evaporation A (30° C., 21 hours)) was 77.5%. For the same molecule, the “HPLC (%) 212 nm” value ([2]; SAS41, H2O:EtOH (1:1 v/v), solid after evaporation A (30° C., 21 hours)) was 90.7%, the “HPLC (%) 212 nm” value ([2]; SAS42, H2O:2-PrOH (1:1 v/v), solid after evaporation A (30° C., 21 hours)) was 92.0% and the “HPLC (%) 212 nm” value ([2]; SAS43, H2O:MeCN (1:1 v/v), solid after evaporation A (30° C., 21 hours)) was 91.1%. For the same molecule, the “HPLC (%) 212 nm” value ([2]; SAS44, H2O:Acetone (1:1 v/v), solid after evaporation A (30° C., 21 hours)) was 93.7%, the “HPLC (%) 212 nm” value ([2]; SAS45, H2O:DMSO (1:1 v/v), solid after evaporation C (50° C., 43 hours)) was 30.2% and the “HPLC (%) 212 nm” value ([2]; SAS46, MeOH:EtOAc (1:1 v/v), solid after evaporation A (30° C., 21 hours)) was 89.0%. For the same molecule, the “HPLC (%) 212 nm” value ([2]; SAS47, MeOH:Acetone (1:1 v/v), solid after evaporation A (30° C., 21 hours)) was 91.0%, the “HPLC (%) 212 nm” value ([2]; SAS48, EtOH:n-Heptane (1:1 v/v), solid after evaporation A (30° C., 21 hours)) was 90.1% and the “HPLC purity of recovered solids (dropped from 99.2%)” value ([2]; experiments with 2-ethoxyethanol, 3-methyl-1-butanol, benzonitrile, DMAc, NMP, DMSO, H2O:DMSO (1:1 v/v)) was 1.2-68.0%.
